Six compounds from patent US7361743B2 (Pfizer Inc, priority 2004, dated 2008) can be followed below.

≈ marks a conversion by molar mass, not a printed value. Like-named read-outs stand apart in the source and are kept apart here.

By IC50 is commonly meant the point on the concentration scale where inhibition reaches its midpoint. A lower IC50 goes with greater potency. In general, ED50 refers to the dose at which the effect has come halfway, by size or by number of responders.

The test system of assay [1] is Haemophilus influenzae. As to the kind of experiment: Susceptibility testing, NCCLS microdilution MIC. The class given is cell-based. The following applies: Haemophilus influenzae, ATCC31517; H. influenzae ATCC 31517; Example A′; read-out: MIC H. influenzae. On the technique in general: Dilution methods test growth across graded concentrations, often in twofold steps.

Assay [2] concerns Enterococcus faecalis. Kind of assay: Susceptibility testing, NCCLS microdilution MIC. The following applies: Enterococcus faecalis, ATCC29212; E. faecalis ATCC 29212; Example A′; read-out: MIC E. faecalis. The class given is cell-based.
The test system of assay [3] is Bacteroides fragilis. As to the kind of experiment: Susceptibility testing, NCCLS microdilution MIC (anaerobe). The class given is cell-based. The following applies: Bacteroides fragilis, ATCC25285; B. fragilis ATCC 25285; Example A′; read-out: MIC B. fragilis.
The subject of assay [4] is Staphylococcus aureus. Kind of assay: Susceptibility testing, NCCLS microdilution MIC. The class given is cell-based. To be noted: ATCC25923, S. aureus ATCC 25923, Example A′, read-out: MIC S. aureus.
Assay [5] concerns E. coli transcription/translation (bacterial protein synthesis, E. coli S30 extract). As to the kind of experiment: In vitro inhibition of E. coli transcription and translation assay (TT), cell-free. The class given is biochemical. To be noted: for IC50: cell-free E. coli S30 extract; for In vitro inhibition of E. coli transcription and translation compared with literature azepine compound VIII(18): cell-free TT assay, comparison in words. How it is done: Inhibition of bacterial protein synthesis was assayed in a cell-free E. coli transcription/translation assay.
Stock solutions of compounds were prepared at 10 mg/mL in DMSO. The assay contained less or equal to 1% (v/v) final concentration of DMSO. Three-fold serial dilutions were prepared in assay buffer at 6-fold final concentration in 96 well microtiter plate.
All vials, tubes and microtiter plates are RNase free. The Mix was freshly prepared with 10 μl H2O, 10 μl AA-M, 10 μl AA-L, 80 μl Premix and 50 μl ES30 extract. The assay was performed in a 96-well plate. Five microliters of compounds at various concentrations (6-fold final assay concentration) were preincubated with 20 μl of the mix for 5 min at room temperature. The reaction started with addition of 5 μl of plasmid (˜0.1 mg/mL pGEMBGAL), and kept at 37° C. for 1 h followed by the addition of 150 μl of OPNG solution (4 mg/mL OPNG in 0.1M NaPi, pH 7.5, 1 mM MgCl2 and 2 mM DTT). 150 μl of the reaction was transferred to a ½-area plate and increase in absorption at OD420 nm was monitored for 10 min using a Spectramax plate reader (Molecular Devices). The slope of absorption change over time is corresponding to the pathway activity.
The E. coli S30 Extract for circular DNA kit was purchased from Promega. Original plasmid pGEMBGAL was obtained from Promega and amplified via Maxiprep in house. 2-Nitrophenyl β-D-galactopyranoside was obtained from Sigma. Clindamycin HCl (USP) was purchased from Spectrum.
The inhibition are expressed as percent of control activity (without inhibitor) which is calculated according to equation (1): Inhibition %=(compound slope-blank slope)/(control slope-blank slope)*100 (1)
All IC50s were determined by fitting the experimental data to equation (2) using software DeltaGraph (DeltaPoint Inc.): Y=Y0/(1+(X/IC50)[…])+c (2)
Where Y: activity at given inhibitor concentration; Y0: activity without inhibitor; X: inhibitor concentration; d: slope; c: constant.
Lincosamides inhibit bacterial growth through binding to the bacterial 50S ribosome, thus inhibiting peptide bond formation. The transcription/translation assay provides a screening tool to measure inhibition of bacterial protein synthesis pathway at the target level without the complication of differences in membrane permeability.

The subject of assay [6] is Staphylococcus aureus Smith. Kind of assay: Efficacy in murine S. aureus septicemia. The class given is in vivo, ICR mice. To be noted: for Efficacy in the murine S. aureus septicemia model relative to clindamycin: IV route of administration, compound given 1 hour after inoculation; for Efficacy in the murine S. aureus septicemia model relative to clindamycin / Efficacy in the murine S. aureus septicemia model by oral route: mice; for ED50: Staphylococcus aureus, murine S. aureus Smith septicemia, dosed 1 hour after inoculation, mortality 7 days; for Efficacy in the murine S. aureus septicemia model by oral route: oral route of administration. The procedure: (§1) Efficacy studies were performed in an S. aureus murine septicemia model according to models published elsewhere (Goldstein, B. P., G. Candiani, T. M. Arain, G. Romano, I. Ciciliato, M. Berti, M. Abbondi, R. Scotti, M. Mainini, F. Ripamonti, and et al. 1995. Antimicrobial activity of MDL 63,246, a new semisynthetic glycopeptide antibiotic Antimicrob. Agents Chemother. 39:1580-1588; Misiek, M., T. A. Pursiano, F. Leitner, and K. E. Price 1973. Microbiological properties of a new cephalosporin, BL-S 339:7-(phenylacetimidoyl-aminoacetamido)-3-(2-methyl-1,3,4-thiadiazol-5-ylthio methyl)ceph-3-em-4-carboxylic acid Antimicrob. Agents Chemother. 3:40-48).
Compounds were dissolved in 2% Tween 80 for oral dosing or 0.9% NaCl solution for intravenous dosing. Compounds were administered at 1 hour after bacterial inoculation. Vancomycin or ampicillin were used as controls.
Male or female ICR mice weighing 22±2 g from MDS Pharma Services were used for the evaluation. Food and water was given ad libitum. Groups of 6 mice weighing […] were used for the experiment. Mice were inoculated intraperitoneally with Staphylococcus aureus Smith at 4 104 CFU in 0.5 ml of Brain Heart Infusion Broth (Difco) containing 5% mucin (Sigma). Mortality was recorded once daily for 7 days following bacterial inoculation.
as §1, with “39:1580-1588.;” for “39:1580-1588;”, “339: 7-(phenylacetimidoyl-aminoacetamido)-3-(2-methyl-1,3,4-thiadiazol-5-ylthio” for “339:7-(phenylacetimidoyl-aminoacetamido)-3-(2-methyl-1,3,4-thiadiazol-5-ylthio”
Male or female ICR mice weighing 22±2 g from MDS Pharma Services were used for the evaluation. Food and water was given ad libitum. Groups of 6 mice weighing […] were used for the experiment. Mice were inoculated intraperitoneally with Staphylococcus aureus Smith at 4 104 CFU in 0.5 mL of Brain Heart Infusion Broth (Difco) containing 5% mucin (Sigma). Mortality was recorded once daily for 7 days following bacterial inoculation.

Setting [7] is: intravenous administration, read-out: ED50, IV.
[8] abbreviates: oral administration, read-out: ED50, PO.

As to `CS[C@H]1O[C@H]([C@H](NC(=O)C2CC[C@H](CCCCF)CCN2)C(C)C)[C@H](O)[C@H](O)[C@H]1O` (stereo in doubt) [Example 4′, 5-(4-Fluoro-butyl)-azepane-2-carboxylic acid [2-methyl-1-(3,4,5-trihydroxy-6-methylsulfanyl-tetrahydro-pyran-2-yl)-propyl]-amide], the MIC turned out to be 0.5 µg/mL (≈ 1.11 µM) in assay [1], 0.125 µg/mL (≈ 0.277 µM) in assay [2], 1 µg/mL (≈ 2.22 µM) in assay [3] and 0.06 µg/mL (≈ 0.133 µM) in assay [4]. The IC50 in assay [5] turned out to be 0.49 µM. Further, the “In vitro inhibition of E. coli transcription and translation compared with literature azepine compound VIII(18)” value in assay [5] is listed as “markedly superior”. In addition, the “Efficacy in the murine S. aureus septicemia model relative to clindamycin” value in assay [6] is “three to greater than five fold better”. Moreover, the median effective dose (ED50) in assay [6] (setting [7]) stood at 0.28 mg/kg.

For `CS[C@H]1O[C@H]([C@H](NC(=O)C2CC[C@H](CCCC#N)CCN2)[C@H](C)Cl)[C@H](O)[C@H](O)[C@H]1O` (stereo in doubt) [Example 7′, 5-(3-Cyano-propyl)-azepane-2-carboxylic acid [2-chloro-1-(3,4,5-trihydroxy-6-methylsulfanyl-tetrahydro-pyran-2-yl)-propyl]-amide], the MIC in assay [1] is 0.5 µg/mL (≈ 1.08 µM); in assay [2], 0.25 µg/mL (≈ 0.539 µM); in assay [3], 4 µg/mL (≈ 8.62 µM); in assay [4], 0.125 µg/mL (≈ 0.269 µM). This compound also showed an IC50 in assay [5] of 0.32 µM. The “In vitro inhibition of E. coli transcription and translation compared with literature azepine compound VIII(18)” value in assay [5] is reported as “markedly superior”. Further, the “Efficacy in the murine S. aureus septicemia model relative to clindamycin” value in assay [6] is “three to greater than five fold better”. For the same compound, the figures for the ED50 in assay [6] (setting [7]) and in assay [6] (setting [8]) were 0.29 mg/kg and greater than 30 mg/kg, respectively.

Consider `COCCC[C@@H]1CCN[C@H](C(=O)N[C@@H]([C@H]2O[C@H](SC)[C@H](O)[C@@H](O)[C@H]2O)[C@H](C)Cl)CC1` [Example 13′, 5-(3-Methoxy-propyl)-azepane-2-carboxylic acid [2-chloro-1-(3,4,5-trihydroxy-6-methylsulfanyl-tetrahydro-pyran-2-yl)-propyl]-amide], for which the MIC was determined as 1 µg/mL (≈ 2.13 µM) in assay [1], 0.5 µg/mL (≈ 1.07 µM) in assay [2], 4 µg/mL (≈ 8.53 µM) in assay [3] and 0.06 µg/mL (≈ 0.128 µM) in assay [4]. In addition, in assay [5], the concentration for half-maximal inhibition (IC50) was determined as 0.83 µM. Further, in assay [5], the “In vitro inhibition of E. coli transcription and translation compared with literature azepine compound VIII(18)” value is listed as “markedly superior”. Besides, in assay [6], the “Efficacy in the murine S. aureus septicemia model relative to clindamycin” value is listed as “three to greater than five fold better”. The median effective dose (ED50) in assay [6] (setting [7]) amounted to 0.28 mg/kg; in assay [6] (setting [8]), 6.84 mg/kg. Moreover, the “Efficacy in the murine S. aureus septicemia model by oral route” value in assay [6] is given as “demonstrated the potential for use of the compounds as orally administered therapeutic agents”.

On to `CS[C@H]1O[C@H]([C@H](NC(=O)C2CC[C@H](CCCF)CCN2)[C@H](C)Cl)[C@H](O)[C@H](O)[C@H]1O` (stereo in doubt) [Example 5′, 5-(3-Fluoro-propyl)-azepane-2-carboxylic acid [2-chloro-1-(3,4,5-trihydroxy-6-methylsulfanyl-tetrahydro-pyran-2-yl)-propyl]-amide], for which the MIC in assay [1] came to 0.25 µg/mL (≈ 0.547 µM); in assay [2] it was 0.06 µg/mL (≈ 0.131 µM); in assay [3], 0.25 µg/mL (≈ 0.547 µM); in assay [4], 0.03 µg/mL (≈ 0.0656 µM). This compound also displayed an IC50 in assay [5] of 2.41 µM. In addition, the “In vitro inhibition of E. coli transcription and translation compared with literature azepine compound VIII(18)” value in assay [5] is recorded as “markedly superior”. For the same compound, the “Efficacy in the murine S. aureus septicemia model relative to clindamycin” value in assay [6] is “three to greater than five fold better”. The ED50 is 0.18 mg/kg in assay [6] (setting [7]) and 6.84 mg/kg in assay [6] (setting [8]). The “Efficacy in the murine S. aureus septicemia model by oral route” value in assay [6] is reported as “demonstrated the potential for use of the compounds as orally administered therapeutic agents”.

`CS[C@H]1O[C@H]([C@H](NC(=O)C2CC[C@H](CCCCF)CCN2)[C@H](C)Cl)[C@H](O)[C@H](O)[C@H]1O` (stereo in doubt) [Example 3′, 5-(4-Fluoro-butyl)-azepane-2-carboxylic acid [2-chloro-1-(3,4,5-trihydroxy-6-methylsulfanyl-tetrahydro-pyran-2-yl)-propyl]-amide]: the MIC in assay [1] amounted to 0.25 µg/mL (≈ 0.531 µM); in assay [2] it was 0.06 µg/mL (≈ 0.127 µM); in assay [3], 0.5 µg/mL (≈ 1.06 µM); in assay [4], 0.03 µg/mL (≈ 0.0637 µM). Moreover, the IC50 in assay [5] was found to be 0.19 µM. For the same compound, in assay [5], the “In vitro inhibition of E. coli transcription and translation compared with literature azepine compound VIII(18)” value is “markedly superior”. Moreover, the “Efficacy in the murine S. aureus septicemia model relative to clindamycin” value in assay [6] is reported as “three to greater than five fold better”. Also, the ED50 in assay [6] (setting [7]) was 0.32 mg/kg.

On to `CS[C@H]1O[C@H]([C@H](NC(=O)C2CC[C@H](CCCF)CCN2)C(C)C)[C@H](O)[C@H](O)[C@H]1O` (some centres unmarked) [Example 6′], for which the MIC in assay [1] amounted to 2 µg/mL (≈ 4.58 µM); in assay [2], 0.25 µg/mL (≈ 0.573 µM); in assay [3], 1 µg/mL (≈ 2.29 µM); in assay [4], 0.06 µg/mL (≈ 0.137 µM). In addition, inhibition in assay [5] was half-maximal at 0.76 µM (IC50). Further, in assay [5], the “In vitro inhibition of E. coli transcription and translation compared with literature azepine compound VIII(18)” value is “markedly superior”. For the same compound, in assay [6], the “Efficacy in the murine S. aureus septicemia model relative to clindamycin” value was “three to greater than five fold better”. In addition, the ED50 in assay [6] (setting [7]) was 0.28 mg/kg.
